Assay results from patent US20240239861A1, “GLUCAGON-RECEPTOR SELECTIVE POLYPEPTIDES AND METHODS OF USE THEREOF” (i2O Therapeutics, Inc., priority 2016, published 2024).
pEC50: −log10 of the molar value. Where a SMILES comes first, the peptide text is derived from it. [ ]: non-standard residue; d: D form. Aib = CC(C)(N)C(=O)O

Tests used:
human GCGR = human GCGR (Homo sapiens, UniProt P47871); experiment: Peptide-receptor mediated cAMP accumulation (LANCE Ultra cAMP) in CHO-K1 cells transfected with human GCGR; assay type: cell-based; details: Table 3
Sequence of human GCGR (P47871 26-477): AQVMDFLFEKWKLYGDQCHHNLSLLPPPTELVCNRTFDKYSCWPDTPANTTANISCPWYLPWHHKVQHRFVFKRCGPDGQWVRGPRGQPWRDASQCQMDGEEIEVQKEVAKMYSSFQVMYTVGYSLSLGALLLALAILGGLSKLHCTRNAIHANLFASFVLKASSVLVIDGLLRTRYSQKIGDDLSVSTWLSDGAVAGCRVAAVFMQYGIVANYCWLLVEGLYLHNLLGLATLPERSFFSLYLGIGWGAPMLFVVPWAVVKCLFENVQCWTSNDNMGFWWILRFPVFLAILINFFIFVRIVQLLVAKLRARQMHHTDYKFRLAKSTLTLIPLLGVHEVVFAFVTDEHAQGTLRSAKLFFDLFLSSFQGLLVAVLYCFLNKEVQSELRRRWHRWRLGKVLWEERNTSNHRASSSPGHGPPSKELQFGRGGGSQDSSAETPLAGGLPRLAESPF

human GLP-1R = human GLP-1R (Homo sapiens, UniProt P43220); experiment: Peptide-receptor mediated cAMP accumulation (LANCE Ultra cAMP) in CHO-K1 cells transfected with human GLP-1R; assay type: cell-based; details: hGLP1 pEC50 (cAMP mean (n = 3): 11 point curve starting at 1 nM, Table 3)
Sequence of human GLP-1R (P43220 24-463): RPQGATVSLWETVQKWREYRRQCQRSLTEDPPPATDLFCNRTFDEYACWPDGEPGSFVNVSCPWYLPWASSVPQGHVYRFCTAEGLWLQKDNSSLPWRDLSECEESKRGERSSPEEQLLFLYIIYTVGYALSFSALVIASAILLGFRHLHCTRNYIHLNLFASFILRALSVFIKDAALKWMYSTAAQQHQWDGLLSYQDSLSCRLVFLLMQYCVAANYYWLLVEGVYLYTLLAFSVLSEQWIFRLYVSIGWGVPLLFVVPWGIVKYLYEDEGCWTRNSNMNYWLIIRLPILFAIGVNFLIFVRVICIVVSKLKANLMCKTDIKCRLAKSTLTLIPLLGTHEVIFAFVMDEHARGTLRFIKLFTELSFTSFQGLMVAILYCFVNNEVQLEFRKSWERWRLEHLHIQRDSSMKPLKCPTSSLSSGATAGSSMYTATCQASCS

SMILES	pEC50 (human GCGR)	pEC50 (human GLP-1R)
CC(C)C[C@H](NC(=O)[C@H](Cc1c[nH]c2ccccc12)NC(=O)[C@H](CCCCN)NC(=O)[C@H](CO)NC(=O)[C@H](Cc1c[nH]cn1)NC(=O)[C@H](CC(=O)O)NC(=O)[C@H](CO)NC(=O)[C@@H](NC(=O)[C@H](Cc1ccccc1)NC(=O)[C@@H](NC(=O)CNC(=O)[C@H](Cc1c[nH]cn1)NC(=O)[C@H](CO)NC(=O)[C@@H](N)Cc1ccc(O)cc1)[C@@H](C)O)[C@@H](C)O)C(=O)N[C@@H](CC(=O)O)C(=O)N[C@@H](CO)C(=O)N[C@@H](C)C(=O)N[C@@H](CCCNC(=N)N)C(=O)N[C@@H](C)C(=O)N[C@@H](CCC(N)=O)C(=O)N[C@@H](CCC(=O)O)C(=O)N[C@@H](Cc1ccccc1)C(=O)N[C@H](C(=O)N[C@@H](CCCCN)C(=O)N[C@@H](Cc1c[nH]c2ccccc12)C(=O)N[C@@H](CC(C)C)C(=O)N[C@@H](CCC(=O)O)C(=O)N[C@@H](CC(=O)O)C(=O)N[C@@H](CCC(=O)O)C(=O)N1CCC[C@H]1C(=O)N[C@@H](CO)C(=O)N[C@@H](CO)C(=O)NCC(=O)N[C@@H](C)C(=O)N1CCC[C@H]1C(=O)N1CCC[C@H]1C(=O)N1CCC[C@H]1C(=O)N[C@@H](CO)C(=O)O)C(C)C [Compound A40] (H-YSHGTFTSDHSKWLDSARAQEFVKWLEDEPSSGAPPPS-OH; N-terminus assumed)	10.10	< 9.00
CC(C)C[C@H](NC(=O)[C@H](Cc1c[nH]c2ccccc12)NC(=O)[C@H](CCCCN)NC(=O)[C@H](CO)NC(=O)[C@H](Cc1c[nH]cn1)NC(=O)[C@H](CC(=O)O)NC(=O)[C@H](CO)NC(=O)[C@@H](NC(=O)[C@H](Cc1ccccc1)NC(=O)[C@@H](NC(=O)CNC(=O)[C@H](Cc1c[nH]cn1)NC(=O)[C@@H](NC(=O)[C@@H](N)Cc1ccc(O)cc1)[C@@H](C)O)[C@@H](C)O)[C@@H](C)O)C(=O)N[C@@H](CC(=O)O)C(=O)N[C@@H](CCC(=O)O)C(=O)N[C@@H](C)C(=O)N[C@@H](CCCNC(=N)N)C(=O)N[C@@H](C)C(=O)N[C@@H](CCC(N)=O)C(=O)N[C@@H](CCC(=O)O)C(=O)N[C@@H](Cc1ccccc1)C(=O)N[C@H](C(=O)N[C@@H](CCCCN)C(=O)N[C@@H](Cc1c[nH]c2ccccc12)C(=O)N[C@@H](CC(C)C)C(=O)N[C@@H](CCC(=O)O)C(=O)N[C@@H](CC(=O)O)C(=O)N[C@@H](CCC(=O)O)C(=O)N1CCC[C@H]1C(=O)N[C@@H](CO)C(=O)N[C@@H](CO)C(=O)NCC(=O)N[C@@H](C)C(=O)N1CCC[C@H]1C(=O)N1CCC[C@H]1C(=O)N1CCC[C@H]1C(=O)N[C@@H](CO)C(=O)O)C(C)C [Compound A41] (H-YTHGTFTSDHSKWLDEARAQEFVKWLEDEPSSGAPPPS-OH; N-terminus assumed)	9.20	< 9.00
CC(C)C[C@H](NC(=O)[C@H](Cc1c[nH]c2ccccc12)NC(=O)[C@H](CCCCN)NC(=O)[C@H](CO)NC(=O)[C@H](Cc1ccc(O)cc1)NC(=O)[C@H](CC(=O)O)NC(=O)[C@H](CO)NC(=O)[C@@H](NC(=O)[C@H](Cc1ccccc1)NC(=O)[C@@H](NC(=O)CNC(=O)[C@H](Cc1c[nH]cn1)NC(=O)[C@@H](NC(=O)[C@@H](N)Cc1ccc(O)cc1)[C@@H](C)O)[C@@H](C)O)[C@@H](C)O)C(=O)N[C@@H](CC(=O)O)C(=O)N[C@@H](CO)C(=O)N[C@@H](CCCCN)C(=O)N[C@@H](CCCNC(=N)N)C(=O)N[C@@H](C)C(=O)N[C@@H](CCC(N)=O)C(=O)N[C@@H](CCC(=O)O)C(=O)N[C@@H](Cc1ccccc1)C(=O)N[C@H](C(=O)N[C@@H](CCCCN)C(=O)N[C@@H](Cc1c[nH]c2ccccc12)C(=O)N[C@@H](CC(C)C)C(=O)N[C@@H](CCC(=O)O)C(=O)N[C@@H](CC(=O)O)C(=O)N[C@@H](CCC(=O)O)C(=O)N1CCC[C@H]1C(=O)N[C@@H](CO)C(=O)N[C@@H](CO)C(=O)NCC(=O)N[C@@H](C)C(=O)N1CCC[C@H]1C(=O)N1CCC[C@H]1C(=O)N1CCC[C@H]1C(=O)N[C@@H](CO)C(=O)O)C(C)C [Compound A42] (H-YTHGTFTSDYSKWLDSKRAQEFVKWLEDEPSSGAPPPS-OH; N-terminus assumed)	9.40	< 9.00
CC(C)C[C@H](NC(=O)[C@H](Cc1ccc(O)cc1)NC(=O)[C@H](CCCCN)NC(=O)[C@H](CO)NC(=O)[C@H](Cc1ccc(O)cc1)NC(=O)[C@H](CC(=O)O)NC(=O)[C@H](CO)NC(=O)[C@@H](NC(=O)[C@H](Cc1ccccc1)NC(=O)[C@@H](NC(=O)CNC(=O)[C@H](Cc1c[nH]cn1)NC(=O)[C@H](CO)NC(=O)[C@@H](N)Cc1ccc(O)cc1)[C@@H](C)O)[C@@H](C)O)C(=O)N[C@@H](CC(=O)O)C(=O)NC(C)(C)C(=O)N[C@@H](CCCCN)C(=O)N[C@@H](CCCNC(=N)N)C(=O)N[C@@H](C)C(=O)N[C@@H](CCC(N)=O)C(=O)N[C@@H](CCC(=O)O)C(=O)N[C@@H](Cc1ccccc1)C(=O)N[C@H](C(=O)NC(C)(C)C(=O)N[C@@H](Cc1c[nH]c2ccccc12)C(=O)N[C@@H](CC(C)C)C(=O)N[C@@H](CCC(=O)O)C(=O)N[C@@H](CC(=O)O)C(=O)N[C@@H](CCC(=O)O)C(=O)N[C@@H](CCCCN)C(=O)N[C@@H](CCCNC(=N)N)C(=O)N[C@@H](CC(N)=O)C(=O)N[C@@H](CCCCN)C(=O)N1CCC[C@H]1C(=O)N1CCC[C@H]1C(=O)N1CCC[C@H]1C(=O)N[C@@H](C)C(=O)O)C(C)C [Compound A45] (H-YSHGTFTSDYSKYLD[Aib]KRAQEFV[Aib]WLEDEKRNKPPPA-OH; N-terminus assumed)	11.70	< 9.00
CC(C)C[C@H](NC(=O)[C@H](Cc1ccc(O)cc1)NC(=O)[C@H](CCCCN)NC(=O)[C@H](CO)NC(=O)[C@H](Cc1ccc(O)cc1)NC(=O)[C@H](CC(=O)O)NC(=O)[C@H](CO)NC(=O)[C@@H](NC(=O)[C@H](Cc1ccccc1)NC(=O)[C@@H](NC(=O)CNC(=O)[C@H](Cc1c[nH]cn1)NC(=O)[C@H](CO)NC(=O)[C@@H](N)Cc1ccc(O)cc1)[C@@H](C)O)[C@@H](C)O)C(=O)N[C@@H](CC(=O)O)C(=O)NC(C)(C)C(=O)N[C@@H](CCCCN)C(=O)N[C@@H](CCCNC(=N)N)C(=O)N[C@@H](C)C(=O)N[C@@H](CCC(N)=O)C(=O)N[C@@H](CCC(=O)O)C(=O)N[C@@H](Cc1ccccc1)C(=O)N[C@H](C(=O)NC(C)(C)C(=O)N[C@@H](Cc1c[nH]c2ccccc12)C(=O)N[C@@H](CC(C)C)C(=O)N[C@@H](CCC(=O)O)C(=O)N[C@@H](CC(=O)O)C(=O)N[C@@H](CCC(=O)O)C(=O)N[C@@H](CCCCN)C(=O)N[C@@H](CCCNC(=N)N)C(=O)N[C@@H](CC(N)=O)C(=O)N[C@@H](CCCCN)C(=O)N[C@@H](CC(N)=O)C(=O)N1CCC[C@H]1C(=O)N1CCC[C@H]1C(=O)N[C@@H](CO)C(=O)O)C(C)C [Compound A47] (H-YSHGTFTSDYSKYLD[Aib]KRAQEFV[Aib]WLEDEKRNKNPPS-OH; N-terminus assumed)	11.50	< 9.00
